Several values for one entry are separate records, joined by “and”; a condition that tells them apart may be missing. Equal values may be shown once.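 All cell lines were grown in 96-well plates and treated with compound for 48 hours. GI50 = concentration required for 50% inhibition of growth.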 Activity calls are given as the source filed them. Cut-off read from the data, not from the text of the source: active = GI50 up to about 1.1 µM and inactive = higher.
Columns and labels:
Experiment in all cases: NCI-60 cell line screen, 48 h
A549 = test system: A549
COLO 205 = test system: COLO 205
EKVX = test system: EKVX
HCC 2998 = test system: HCC 2998
HOP-62 = test system: HOP-62
K562 = test system: K562
NCI-H226 = test system: NCI-H226
OVCAR-3 = test system: OVCAR-3
OVCAR-4 = test system: OVCAR-4
OVCAR-5 = test system: OVCAR-5
OVCAR-8 = test system: OVCAR-8
PC-3 = test system: PC-3
SF-268 = test system: SF-268
SK-MEL-2 = test system: SK-MEL-2
SK-MEL-5 = test system: SK-MEL-5
SK-OV-3 = test system: SK-OV-3
SN12C = test system: SN12C
TK-10 = test system: TK-10
U-251 = test system: U-251
A498 = test system: A498

Measured: GI50

O=C(Nc1sccc1S(=O)(=O)c1ccccc1)c1cccnc1
inactive: A549 11.5 µM | COLO 205 3.88 µM | EKVX 48.9 µM | HCC 2998 21.3 µM | HOP-62 21.9 µM | K562 4.39 µM | NCI-H226 13.7 µM | OVCAR-3 11.6 µM | OVCAR-4 > 100 µM | OVCAR-5 > 70.6 µM | OVCAR-8 22.7 µM | PC-3 37.6 µM | SF-268 57.4 µM | SK-MEL-2 6.71 µM | SK-MEL-5 3.61 µM | SK-OV-3 11.7 µM | SN12C 9.86 µM | TK-10 > 83 µM | U-251 2.97 µM

Cc1ccc(Nc2n[nH]c(=S)s2)cc1
inactive: A498 > 100 µM | A549 > 100 µM | COLO 205 > 100 µM | EKVX > 100 µM | HCC 2998 > 100 µM | HOP-62 > 100 µM | K562 > 100 µM | NCI-H226 > 100 µM | OVCAR-3 > 100 µM | OVCAR-5 > 100 µM | OVCAR-8 > 100 µM | PC-3 > 100 µM | SF-268 > 100 µM | SK-MEL-5 99.1 µM | SK-OV-3 > 100 µM | SN12C > 100 µM | TK-10 > 100 µM | U-251 > 100 µM

CCCSc1ccc2[nH]c(N3C(=O)/C(=C/c4ccco4)N=C3c3ccccc3)cc2c1
inactive: A498 15.4 µM | A549 25.7 µM | COLO 205 10.4 µM | EKVX 16.9 µM | HCC 2998 18.3 µM | HOP-62 40.7 µM | K562 15.6 µM | OVCAR-3 21.6 µM | OVCAR-5 > 50 µM | OVCAR-8 > 50 µM | PC-3 21.3 µM | SF-268 33 µM | SK-MEL-2 10.3 µM | SK-MEL-5 9.89 µM | SN12C 35 µM

Cc1cc(Oc2cnc(=O)[nH]c2)cs1
inactive: A498 > 100 µM | A549 > 100 µM | COLO 205 > 100 µM | EKVX > 100 µM | HCC 2998 > 100 µM | HOP-62 > 100 µM | K562 > 100 µM | NCI-H226 > 100 µM | OVCAR-3 > 100 µM | OVCAR-5 > 100 µM | OVCAR-8 > 100 µM | PC-3 > 100 µM | SF-268 > 100 µM | SK-MEL-2 > 100 µM | SK-MEL-5 > 100 µM | SK-OV-3 > 100 µM | SN12C > 100 µM | TK-10 > 100 µM | U-251 > 100 µM

CCC1CCN=C(Cn2cc(C)c(=O)[nH]c2=O)N1 (stereo not drawn)
inactive: A498 > 100 µM | A549 > 100 µM | COLO 205 > 100 µM | EKVX > 100 µM | HCC 2998 > 100 µM | HOP-62 > 100 µM | NCI-H226 > 100 µM | OVCAR-5 > 100 µM | OVCAR-8 > 100 µM | PC-3 > 100 µM | SF-268 > 100 µM | SK-MEL-2 > 100 µM | SK-MEL-5 > 100 µM | SK-OV-3 > 100 µM | SN12C > 100 µM | TK-10 > 100 µM | U-251 > 100 µM

CNC(=S)N/N=C(\C)c1cc(OC)c(OC)cc1O
inactive: A498 > 100 µM | A549 > 100 µM | COLO 205 > 100 µM | EKVX > 100 µM | HCC 2998 > 100 µM | HOP-62 > 100 µM | K562 7.29 µM | OVCAR-3 > 100 µM | OVCAR-5 > 100 µM | OVCAR-8 > 100 µM | PC-3 > 100 µM | SF-268 > 100 µM | SK-MEL-2 > 100 µM | SK-MEL-5 > 100 µM | SK-OV-3 > 100 µM | SN12C > 100 µM | TK-10 > 100 µM | U-251 > 100 µM

CC(=O)O[C@H]1CC2C(C3CC[C@H](C(C)CCC(N)=O)[C@]31C)[C@H](OC(C)=O)C[C@@H]1CC3(CC[C@]21C)OOC1(CCC(C)CC1)OO3 (stereo partly drawn)
inactive: A498 11.7 µM and 14.3 µM | A549 1.24 µM and 1.79 µM | COLO 205 1.56 µM | HCC 2998 2.06 µM and 2.38 µM | K562 2.48 µM and 3.99 µM | NCI-H226 1.47 µM and 2.09 µM | OVCAR-3 2.07 µM and 1.79 µM | OVCAR-4 1.32 µM and 1.48 µM | OVCAR-5 2.09 µM and 2.04 µM | OVCAR-8 1.71 µM and 1.47 µM | PC-3 2.69 µM | SF-268 1.62 µM and 1.83 µM | SK-MEL-2 1.91 µM | SK-MEL-5 1.74 µM and 2.96 µM | SN12C 1.67 µM and 2.27 µM | TK-10 1.95 µM and 2.72 µM | U-251 1.66 µM

CCN(CC)C(=O)N1CN(c2ccccc2)C2(CCN(CCCC3(c4ccc(F)cc4)OCCO3)CC2)C1=O
inactive: A549 29.3 µM | COLO 205 3.13 µM | EKVX 25.9 µM | HCC 2998 14.5 µM | HOP-62 4.26 µM | NCI-H226 30.5 µM | OVCAR-3 16.4 µM | OVCAR-4 22.4 µM | OVCAR-5 > 10 µM | OVCAR-8 19.8 µM | PC-3 17.5 µM | SF-268 20.6 µM | SK-MEL-2 14.8 µM | SK-MEL-5 12.9 µM | SK-OV-3 24.4 µM | SN12C 16.9 µM | TK-10 17.5 µM | U-251 16.6 µM

CCNc1cc2c(cc1O)CC[C@@H]1[C@@H]2CC[C@]2(C)[C@@H](O)CC[C@@H]12
inactive: A498 1.7 µM | A549 2.32 µM | COLO 205 14.4 µM | EKVX 16.3 µM | NCI-H226 2.82 µM | OVCAR-4 8.26 µM | OVCAR-5 20.3 µM | OVCAR-8 11.7 µM | PC-3 9.91 µM | SF-268 15.8 µM | SN12C 15.3 µM | TK-10 19.5 µM | U-251 1.61 µM
active: HCC 2998 1.02 µM | K562 0.711 µM | SK-MEL-5 0.394 µM

COc1ccc(-c2nc(SCC(=O)N/N=C/c3ccc([N+](=O)[O-])cc3)[nH]c2-c2ccc(OC)cc2)cc1
inactive: A498 14.3 µM | A549 6.95 µM | COLO 205 2.23 µM | EKVX 16.4 µM | HCC 2998 12.1 µM | HOP-62 16.7 µM | K562 7.45 µM | OVCAR-3 10.4 µM | OVCAR-4 39.4 µM | OVCAR-5 16.2 µM | OVCAR-8 17.7 µM | PC-3 6.49 µM | SF-268 25.7 µM | SK-MEL-2 6.47 µM | SK-MEL-5 6.27 µM | SK-OV-3 20.2 µM | SN12C 16.6 µM | TK-10 22.3 µM | U-251 11.7 µM

Cc1cn(CC2=NCCN2)c(=O)[nH]c1=O
inactive: A498 > 100 µM | A549 > 100 µM | COLO 205 > 100 µM | EKVX > 100 µM | HCC 2998 > 100 µM | HOP-62 > 100 µM | K562 > 100 µM | NCI-H226 > 100 µM | OVCAR-4 > 100 µM | OVCAR-5 > 100 µM | OVCAR-8 > 100 µM | PC-3 > 100 µM | SF-268 > 100 µM | SK-MEL-2 > 100 µM | SK-MEL-5 > 100 µM | SK-OV-3 > 100 µM | SN12C > 100 µM | TK-10 > 100 µM | U-251 > 100 µM

CCCCc1ccc(-n2sc3ncc([N+](=O)[O-])cc3c2=O)cc1
inactive: A549 12.9 µM | COLO 205 18.4 µM | EKVX 13.6 µM | HCC 2998 12.5 µM | HOP-62 14.4 µM | NCI-H226 12.8 µM | OVCAR-3 5.05 µM | OVCAR-4 6.58 µM | OVCAR-5 13.4 µM | OVCAR-8 22.9 µM | PC-3 5.55 µM | SF-268 13 µM | SK-MEL-2 1.57 µM | SK-MEL-5 14.6 µM | SK-OV-3 > 100 µM | SN12C 17.3 µM | TK-10 21.1 µM | U-251 12.6 µM

CC(C)[C@@H]1ON1C(C)c1ccccc1 (stereo partly drawn)
inactive: A498 > 100 µM | A549 > 100 µM | COLO 205 > 100 µM | EKVX > 100 µM | HCC 2998 > 100 µM | HOP-62 > 100 µM | K562 > 100 µM | NCI-H226 > 100 µM | OVCAR-3 > 100 µM | OVCAR-4 > 100 µM | OVCAR-5 > 100 µM | OVCAR-8 > 100 µM | PC-3 > 100 µM | SF-268 > 100 µM | SK-MEL-5 > 100 µM | SK-OV-3 > 100 µM | SN12C > 100 µM | TK-10 > 100 µM | U-251 > 100 µM

Oc1cccc2ccc(Br)nc12
inactive: A498 > 100 µM | A549 > 100 µM | COLO 205 > 100 µM | EKVX > 100 µM | HCC 2998 63 µM | HOP-62 > 100 µM | K562 > 100 µM | NCI-H226 > 100 µM | OVCAR-3 > 100 µM | OVCAR-4 > 100 µM | OVCAR-5 > 100 µM | OVCAR-8 > 100 µM | PC-3 86.5 µM | SF-268 > 100 µM | SK-MEL-5 > 100 µM | SK-OV-3 > 100 µM | SN12C > 100 µM | TK-10 > 100 µM | U-251 > 100 µM

CCCCCCCC(=O)NS(=O)(=O)c1ccccc1
inactive: A498 > 100 µM | A549 > 100 µM | COLO 205 > 100 µM | EKVX > 100 µM | HCC 2998 > 100 µM | HOP-62 > 100 µM | K562 > 100 µM | OVCAR-3 > 100 µM | OVCAR-4 > 100 µM | OVCAR-8 > 100 µM | PC-3 > 100 µM | SF-268 > 100 µM | SK-MEL-2 > 100 µM | SK-MEL-5 > 100 µM | SK-OV-3 > 100 µM | TK-10 > 100 µM | U-251 > 100 µM

— ChEMBL document CHEMBL1201862, “PubChem BioAssay data set” (2004)
